According to patent US20110177105A1, “Novel Selective Inhibitors of Ubiquitin Specific Protease 7, the Pharmaceutical Compositions Thereof and Their Therapeutic Applications” (priority 2010, published 2011):

What was measured:
USP7 [1] = target: T1, USP7 (Homo sapiens, UniProt Q93009); test: USP7 activity assay (Ub-AMC); format: biochemical; set-up: Full-length wild-type human USP7 and its catalytic mutant (cysteine 223 replaced by alanine, C223A) were produced as N-terminally His-tagged fusions; His tag (pFastBac-HT) (N); made in house; host or cells: Spodoptera frugiperda Sf9 (or High Five) insect cells, baculovirus; conditions: 300 nM Ub-AMC, 100 pM enzyme, 30 min pre-incubation; read-out: USP7 (inhibition of deubiquitinating activity)
T1 sequence (Q93009 whole entry, the tested form may be a part): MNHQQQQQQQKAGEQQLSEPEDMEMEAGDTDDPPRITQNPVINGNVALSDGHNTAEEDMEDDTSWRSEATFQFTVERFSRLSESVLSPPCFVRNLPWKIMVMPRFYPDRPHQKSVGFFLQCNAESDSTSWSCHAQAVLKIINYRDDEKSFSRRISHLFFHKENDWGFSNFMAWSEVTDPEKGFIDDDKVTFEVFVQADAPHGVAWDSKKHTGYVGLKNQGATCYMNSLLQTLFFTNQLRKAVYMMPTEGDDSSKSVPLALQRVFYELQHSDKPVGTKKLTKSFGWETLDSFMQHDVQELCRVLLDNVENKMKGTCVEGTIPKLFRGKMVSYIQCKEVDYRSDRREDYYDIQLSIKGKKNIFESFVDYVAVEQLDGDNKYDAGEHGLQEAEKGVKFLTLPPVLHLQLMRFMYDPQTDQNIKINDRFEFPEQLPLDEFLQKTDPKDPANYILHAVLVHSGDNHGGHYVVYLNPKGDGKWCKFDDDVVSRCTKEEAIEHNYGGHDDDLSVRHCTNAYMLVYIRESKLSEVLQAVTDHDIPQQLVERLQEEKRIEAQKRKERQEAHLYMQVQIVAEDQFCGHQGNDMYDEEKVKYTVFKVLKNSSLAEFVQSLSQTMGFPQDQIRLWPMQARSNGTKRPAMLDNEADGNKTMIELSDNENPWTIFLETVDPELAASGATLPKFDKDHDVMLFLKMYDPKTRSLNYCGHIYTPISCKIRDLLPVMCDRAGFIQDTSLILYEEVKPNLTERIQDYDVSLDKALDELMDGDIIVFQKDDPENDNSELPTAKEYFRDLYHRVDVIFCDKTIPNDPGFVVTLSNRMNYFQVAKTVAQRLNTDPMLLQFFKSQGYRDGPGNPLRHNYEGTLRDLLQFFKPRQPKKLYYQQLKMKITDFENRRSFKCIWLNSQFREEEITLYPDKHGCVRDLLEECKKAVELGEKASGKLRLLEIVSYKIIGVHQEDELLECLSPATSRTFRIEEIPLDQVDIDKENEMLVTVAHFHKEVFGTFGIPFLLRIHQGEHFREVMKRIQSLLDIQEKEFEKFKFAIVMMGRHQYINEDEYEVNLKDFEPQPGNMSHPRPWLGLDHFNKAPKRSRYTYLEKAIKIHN
Source text: The cDNA encoding USP7 was obtained by PCR amplification from placenta mRNA. USP7 cDNA was subcloned by PCR into a baculovirus expression vector (pFastBac-HT; Invitrogen). Full-length wild-type human USP7 and its catalytic mutant (cysteine 223 replaced by alanine, C223A) were produced as N-terminally His-tagged fusions in Spodoptera frugiperda cells (Sf9, Invitrogen), using the Bac-to-Bac Baculovirus system from Invitrogen according to the manufacturer's instructions. pFastBac-HT-B-USP7 was used to transform DH10bac cells (Invitrogen), and blue/white selection was carried out on X-gal/IPTG agar plates. Bacmid DNA was prepared by an alkaline lysis procedure. The integrity of the bacmid minipreps and their orientation were checked by PCR, using generic and specific primers. Sf9 insect cells were cultured in InsectXpress medium (Cambrex) at 27° C. and transfected with the corresponding bacmid, using GeneShuttle 40 (Q-BIOgen). Viruses were recovered in the supernatant 72 h after transfection. Viruses were amplified by infecting insect cells (Sf9 or High Five cells; invitrogen) in 50 ml InsectXpress medium in a 150 cm^2 cell culture flask with 500 μl of the supernatant from transfected Sf9 cells. Following the second round of amplification, infected cells were recovered by rapid SDS lysis, boiled for 5 min at 100° C., sonicated briefly and centrifuged for 20 min at 14,000 g. Expression levels in infected Sf9 cells were compared with those in uninfected cells. Fusion proteins were then allowed to bind to TALON beads (BD Biosciences, TALON metal affinity resin) for 30 min at 4° C. with gentle rocking. Beads were extensively washed (50 mM sodium phosphate buffer pH 7.0, 500 mM NaCl, 10 mM Imidazole, 0.5% Triton X-100 and 10% glycerol) and bound proteins were eluted in wash buffer supplemented with 250 mM Imidazole (Sigma). Eluted fractions were resolved on 4-12% NuPAGE gels (Novex, Invitrogen). Fractions containing high concentrations of purified proteins (purity>95%) were dialyzed (20 mM Tris HCl pH 7.6, 200 mM NaCl, 1 mM DTT, 1 mM EDTA and 10% glycerol) were aliquoted and snap frozen in liquid nitrogen before storage at −80° C.
USP7 was diluted in USP buffer (50 mM Tris HCl; 0.5 mM EDTA; 5 mM DTT; 0.01% Triton X-100; Bovine Serum Albumin 0.05 mg·ml^−1 pH 7.6). Compounds stocks (10 mM) were stored at −20° C. in DMSO. Compounds were tested at different concentrations: from 200 μM to 91 nM.
Reactions were performed as duplicates in Black 384 well plates (small volumes microplates; Greiner; 10 μl final reaction volume). The substrate concentration for USP7 was 300 nM Ub-AMC (Chem. Biol., 2003, 10, p. 837-846) (Boston Biochem). The concentrations of the enzyme (USP7) in specificity assays was 100 pM. The concentrations were determined in order to perform specificity assays under initial velocities at fixed substrate concentration. Compounds were pre-incubated with enzymes for 30 minutes at 25° C. Reactions were initiated by addition of substrate to the plates containing the enzymes (+/−compounds) diluted in assay buffer. Reactions were incubated for 60 minutes at 37° C. Reactions were stopped by adding acetic acid (100 mM final). Readings were performed on a Pherastar Fluorescent Reader (BMG). λ Emission 380 nm; λ Excitation=460 nm. Data (mean values+/−standard deviation) were analyzed as % of control (no compound) and plotted as percentage versus the Log of the compound concentration using GraphPad (Prism). Data were fitted to a sigmoidal model (variable slope).

USP7 [2] = target: T1, USP7; test: HA-Ub-VS labeling of active DUBs in HCT116 cell lysates; format: biochemical; set-up: endogenous in cells; host or cells: HCT116 (inducible USP7 shRNA line) cell lysate; conditions: for HA-Ub-VS-USP7 protein level: different doses (100 μM to 3 μM)
Source text: The C-terminally modified vinyl sulfone derivative of ubiquitin, UbVS, was clearly helpful for a direct visualization of active DUBs in cells. This tool, which binds covalently to the cysteine active site of deubiquitinating enzymes, was successfully applied to discover and characterize novel ubiquitin/ubiquitin-like proteases and to profile active deubiquitinating enzymes in normal, virus-infected, and malignant cells (Borodovsky et al., Chem Biol 2002, 9, 1149-1159, Hemelaar et al., Mol Cell Biol 2004, 24, 84-95, Ovaa et al., Proc Natl Acad Sci USA 2004 101, 2253-2258).
The HA-Ub-VS probe (Hemagglutin tag-Ubiquitin-Vinyl Sulfone) was used in this study to directly visualize the activity of all deubiquitinating enzymes from cell lysates. This tool was used to evaluate the activity/specificity of our small molecule compounds on USP7 relative to all deubiquitinating enzymes active in physiological conditions.
Inducible USP7 shRNA HCT116 cells (previously treated with or without Doxycycline (2 μg/ml) for 4 days) as well as HEK293 cells were harvested and lysed on ice with a non denaturating buffer containing Tris pH 7.4, 50 mM; NaCl, 150 mM; MgCl2, 5 mM; EDTA, 0.5 mM; DTT, 2 mM; ATP, 2 mM; NP40, 0.5% and glycerol, 10%. Samples were incubated at 4° C. for 1 hour and clarified. Proteins were then quantified by Bradford method (Bio-Rad Protein Assay). 25 μg of proteins from native cell lysates were treated with compounds of examples 14 and 5 (from 100 μM to 3 μM) or with NEM (N-Ethylmaleimide, a thiol-reactive compound, 5 mM) for 2 hours at room temperature. The ubiquitin labeling reaction was initiated by the addition of HA-Ub-VS (8 μg/ml) in labeling buffer (Tris pH 7.6, 50 mM; MgCl2, 5 mM; EDTA, 0.5 mM; DTT, 2 mM; ATP, 2 mM; sucrose, 250 mM) and incubated at room temperature for 30 min. Samples were next heated at 100° C. for 10 minutes and briefly sonicated. They were resolved by SDS-polyacrylamide gel electrophoresis (SDS-PAGE), transferred to a nitrocellulose membrane and probed with antibodies against USP7 (Bethyl Lab, A300-034A), HA (BabCO, MMS-101P), and actin (Sigma, A2066). Horseradish peroxidase (HRP)-conjugated anti-mouse (Jackson Laboratories, 115-035-003) or HRP-conjugated anti-rabbit (Cell Signaling, 7074) antibodies were used as secondary antibodies. Signals were detected by enhanced chemiluminescence (ECL; Amersham) according to the reagent manufacturer's instructions.

Row | SMILES | IC50 (USP7 [1]) [µM] | HA-Ub-VS-USP7 protein level (USP7 [2]) | HA-Ub-VS labeled DUB bands after treatment (HA-Ub-VS-USP7 band) (USP7 [2]; fixed dose 50 μM, anti-HA immunoblot)
1 | CN1CCN(CCCNC(=O)c2ccc3c(Cl)c4c(nc3c2)CCCC4)CC1 [Example 15, 9-Chloro-5,6,7,8-tetrahydro-acridine-3-carboxylic acid [3-(4-methyl-piperazin-1-yl)-propyl]-amide] | 43 | – | –
2 | CCN(CC)CCCNC(=O)c1ccc2c(Cl)c3c(nc2c1)CCCC3 [Example 10, 9-Chloro-5,6,7,8-tetrahydro-acridine-3-carboxylic acid (3-diethylamino-propyl)-amide] | 29.2 | – | –
3 | CCCCN(CC)CCNC(=O)c1ccc2c(Cl)c3c(nc2c1)CCCC3 [Example 4, 9-Chloro-5,6,7,8-tetrahydro-acridine-3-carboxylic acid [2-(butyl-ethyl-amino)-ethyl]-amide] | 23.5 | – | –
4 | CCN(CC)CCNC(=O)c1ccc2c(Cl)c3c(nc2c1)CCCC3 [Example 7, 9-Chloro-5,6,7,8-tetrahydro-acridine-3-carboxylic acid (2-diethylamino-ethyl)-amide] | 24.9 | – | –
5 | CN(C)CCNC(=O)c1ccc2c(Cl)c3c(nc2c1)CCCC3 [Example 11, 9-Chloro-5,6,7,8-tetrahydro-acridine-3-carboxylic acid (2-dimethylamino-ethyl)-amide] | 29.8 | – | –
6 | CCCN(CCC)CCCNC(=O)c1ccc2c(Cl)c3c(nc2c1)CCCC3 [Example 6, 9-Chloro-5,6,7,8-tetrahydro-acridine-3-carboxylic acid (3-dipropylamino-propyl)-amide] | 23.8 | – | –
7 | CCCN1CCN(CCCNC(=O)c2ccc3c(Cl)c4c(nc3c2)CCCC4)CC1 [Example 13, 9-Chloro-5,6,7,8-tetrahydro-acridine-3-carboxylic acid [3-(4-propyl-piperazin-1-yl)-propyl]-amide] | 37.9 | – | –
8 | O=C(c1ccc2c(Cl)c3c(nc2c1)CCCC3)N1CCC(N2CCCCC2)CC1 [Example 16, [1,4′]Bipiperidinyl-1′-yl-(9-chloro-5,6,7,8-tetrahydro-acridin-3-yl)-methanone] | 46 | – | –
9 | CN(CCCNC(=O)c1ccc2c(Cl)c3c(nc2c1)CCCC3)Cc1ccccc1 [Example 14, 9-Chloro-5,6,7,8-tetrahydro-acridine-3-carboxylic acid [3-(benzyl-methyl-amino)-propyl]-amide] | 28.1 | specific and dose-dependent decrease | only one band was decreased
10 | CCN1CCCC1CNC(=O)c1ccc2c(Cl)c3c(nc2c1)CCCC3 (stereo not shown) [Example 2, 9-Chloro-5,6,7,8-tetrahydro-acridine-3-carboxylic acid (1-ethyl-pyrrolidin-2-ylmethyl)-amide] | 11.5 | – | –
11 | Cc1cccc(CN2CCC(CNC(=O)c3ccc4c(Cl)c5c(nc4c3)CCCC5)CC2)c1 [Example 1, 9-Chloro-5,6,7,8-tetrahydro-acridine-3-carboxylic acid [1-(3-methyl-benzyl)-piperidin-4-ylmethyl]-amide] | 9.1 | – | –
12 | CCCN(CCC)CCNC(=O)c1ccc2c(Cl)c3c(nc2c1)CCCC3 [Example 3, 9-Chloro-5,6,7,8-tetrahydro-acridine-3-carboxylic acid (2-dipropylamino-ethyl)-amide] | 12.4 | – | –
13 | O=C(c1ccc2c(Cl)c3c(nc2c1)CCCC3)N1CCCCCC1 [Example 12, Azepan-1-yl-(9-chloro-5,6,7,8-tetrahydro-acridin-3-yl)-methanone] | 37.9 | – | –
14 | CC1CCCC(C)N1CCCNC(=O)c1ccc2c(Cl)c3c(nc2c1)CCCC3 (stereo not shown) [Example 9, 9-Chloro-5,6,7,8-tetrahydro-acridine-3-carboxylic acid [3-(2,6-dimethyl-piperidin-1-yl)-propyl]-amide] | 28.7 | – | –
15 | O=C(NCCCN1CCCC1)c1ccc2c(Cl)c3c(nc2c1)CCCC3 [Example 8, 9-Chloro-5,6,7,8-tetrahydro-acridine-3-carboxylic acid (3-pyrrolidin-1-yl-propyl)-amide] | 25.6 | – | –
16 | CCN(CCCNC(=O)c1ccc2c(Cl)c3c(nc2c1)CCCC3)Cc1ccccc1 [Example 5, 9-Chloro-5,6,7,8-tetrahydro-acridine-3-carboxylic acid [3-(benzyl-ethyl-amino)-propyl]-amide] | 22.6 | specific and dose-dependent decrease | –
